This is an account of results in patent publication US20050020544A1, “Bicyclic CB2 cannabinoid receptor ligands” (priority 2002, published 2005).

Where two headings read alike, the source gives them in different places.

The subject of experiment [1] is IL-2 secretion from activated Jurkat cells. Nature of the experiment: Inhibition of IL-2 in PMA/A23187 activated T cells (ELISA). The format is cell-based, human. The conditions noted are these: for reversal of IL-2 secretion inhibiting activity by antagonists: 0.5-5 μM of CB1 antagonist SR141716A or CB2 antagonist SR144528; for IC50: 24 hours after stimulation, read-out: calculated IC50 IL-2 secretion. How it is done:
The technique used to quantify the amount of a given protein in a liquid sample, either tissue culture supernatant or body fluid, is based on Enzyme Linked ImmunoSorbent Assay (ELISA) methodology. Either commercially available or established in house, the assay is based on the capture of the protein of interest by specific antibodies bound to the bottom of an ELISA plate well. […] Again the unbound material is washed away, the samples are then incubated with the appropriate substrate yielding a calorimetric reaction. The reaction is stopped and reading is performed in a spectrophotometer at the appropriate wavelength. Samples are tested at least in duplicate and the appropriate standard curve, consisting of serial dilutions of the recombinant target protein, is incorporated on each plate. Concentration of the protein in the sample is calculated from the standard curve.
Jurkat cells (human acute lymphoma T-cell line; ATCC # TIB-152) are grown in RPMI 1640 medium with 2 mM L-glutamine adjusted to contain 1.5 g/L sodium bicarbonate, 4.5 g/L glucose, 10 mM HEPES, 1.0 mM sodium pyruvate, and 10% heat inactivated fetal bovine serum. Cells are grown in tissue culture flasks and seeded at appropriate density into 24 wells tissue culture plates. 2×10^6 cells in one milliliter are stimulated using 10 ng/ml of PMA (Sigma) and 1 μM A23187 calcium ionophore (Sigma). […] The controls and test compounds are added at indicated concentrations one hour before stimulation. Supernatant is collected 24 hours after stimulation and the levels of the inflammatory agent under study are measured in an ELISA assay as previously described. Inhibition is calculated versus vehicle treated cells.
The activation of the T cells is performed as previously described. The levels of IL-2 are measured in an ELISA assay as previously described. Inhibition is calculated versus vehicle treated cells.

For experiment [2], the system named is TNF-α secretion from activated RAW 264.7 macrophages. Nature of the experiment: Inhibition of TNF-α in LPS activated macrophages (ELISA). The format is cell-based, mouse. Particulars: for effect on TNF-α secretion: doses up to 20 μM. The source says:
(§1) The technique used to quantify the amount of a given protein in a liquid sample, either tissue culture supernatant or body fluid, is based on Enzyme Linked ImmunoSorbent Assay (ELISA) methodology. Either commercially available or established in house, the assay is based on the capture of the protein of interest by specific antibodies bound to the bottom of an ELISA plate well. Unbound material is washed away, the captured protein is then exposed to a secondary antibody generally labeled with horseradish peroxidase (HRP) or alkaline phosphatase (ALP). Again the unbound material is washed away, the samples are then incubated with the appropriate substrate yielding a calorimetric reaction. The reaction is stopped and reading is performed in a spectrophotometer at the appropriate wavelength. Samples are tested at least in duplicate and the appropriate standard curve, consisting of serial dilutions of the recombinant target protein, is incorporated on each plate. Concentration of the protein in the sample is calculated from the standard curve.
(§2) RAW 264.7 macrophages, a mouse cell line (ATCC # TIB-71), were grown in Dulbecco's modified Eagle's medium (DMEM) with 4 mM L-glutamine adjusted to contain 1.5 g/L sodium bicarbonate, 4.5 g/L glucose, and 10% heat inactivated fetal bovine serum. Cells were grown in tissue culture flasks and seeded at appropriate density into 24 wells tissue culture plates. 0.5×10^6 Raw cells in one milliliter were stimulated with 2 μg/ml Lipopolysaccharide E. coli 055:B5 (DIFCO Laboratories). The mouse macrophages were pre-treated for one hour with controls or 10 μM of bicyclic CB2 ligands and later on activated with LPS. Dexamethasone was used as a positive control at 50 nM. Supernatant was collected 4 hours (for PGE2) and 24 hours (for IL-1β and TNF-α) after activation, and the levels of the inflammatory agent under study were determined by ELISA, as previously described. Inhibition was calculated versus vehicle treated cells.
The activation of the macrophages is performed as previously described. The levels of TNF-α are measured in an ELISA assay as previously described. Inhibition is calculated versus vehicle treated cells.

The subject of experiment [3] is PGE2 secretion from activated RAW 264.7 macrophages. The experiment in a line: Inhibition of PGE2 in LPS activated macrophages (ELISA). The format is cell-based, mouse. Particulars: 4 hours after activation, doses 1 μM to 20 μM.
Description: as §1, §2
The activation of the macrophages is performed as previously described. The levels of PGE2 are measured in an ELISA assay as previously described. Inhibition is calculated versus vehicle treated cells. […] Results are depicted in FIG. 2B.

The target in experiment [4] is human CB2 receptor (Homo sapiens, UniProt P34972). Nature of the experiment: Adenylylcyclase assay: forskolin-activated cAMP in CB2 transfected HEK-293 cells. It counts as cell-based. Particulars: for inhibition at 1 µM: HEK293, read-out: % inhibition at 1 μM. The procedure:
Cannabinoids and derivatives bind to G-protein-coupled CB1 and CB2 receptors and exert their activity via the inhibition of adenylylcyclase activity. An adenylylcyclase assay forms a basis for the functional analysis of the compounds by determining their capacity to inhibit or promote forskolin-activated cAMP production. The assay is carried out according to Chin et al. (Chin, C. N. et al., J. Neurochem. 70: 366-73, 1998). Briefly, HEK-293 human kidney cells (ATCC#CRL-1573) stably transfected with either the human CB1 or CB2 receptor (cDNA) were grown in DMEM supplemented with 10% fetal calf serum, 1% Penicillin-Streptomycin and 2 mM L-glutamine. Cells were seeded in 24 wells plate at 5×10^4 cells/well and incubated for 48 hours. Medium was then removed and the adherent cells were washed with PBS. Two hundred μl of serum free medium supplemented with 0.2 mM Ro 20-1724, 0.25% BSA, and 20 mM HEPES was then added to each well. The cells were then activated with 1 μM forskolin in presence of the bicyclic test compounds in concentrations ranging from 10 pM up to 1 μM. The activated cells were then incubated at 37° C. for 20 minutes and the reaction terminated with 1.2 M HCl to a final concentration of 0.1 M. Cells were lyzed by freeze and thaw and the lysate was neutralized with 2 M HEPES, pH 7.5. cAMP was measured in 50 μl aliquots using the [^3H]-cAMP assay system (Amersham).
This experiment was first performed on CB2 receptor transfected cells.

[5] abbreviates: CB2 receptor transfected HEK-293, 1 μM forskolin.
The mark [6] stands for this setting: CB2 receptor transfected HEK-293, 1 μM forskolin, read-out: IC50 inhibition of cAMP level.

Sequence of human CB2 receptor (P34972 whole entry): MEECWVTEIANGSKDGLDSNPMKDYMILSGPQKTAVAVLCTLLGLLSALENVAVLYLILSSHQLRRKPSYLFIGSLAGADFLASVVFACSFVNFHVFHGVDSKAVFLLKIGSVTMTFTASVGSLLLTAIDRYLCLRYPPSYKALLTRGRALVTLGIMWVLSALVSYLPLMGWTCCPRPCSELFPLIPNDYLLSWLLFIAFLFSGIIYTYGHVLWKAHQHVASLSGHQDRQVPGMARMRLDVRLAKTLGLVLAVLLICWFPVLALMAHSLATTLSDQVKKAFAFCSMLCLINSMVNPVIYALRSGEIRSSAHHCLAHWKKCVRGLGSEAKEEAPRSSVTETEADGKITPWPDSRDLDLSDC

With `CCCCCCC(C)(C)c1cc(OC)c(C2C=C(CO)C3CC2C3(C)C)c(OC)c1` (single isomer, unassigned; (+)) [HU-308, (+) {4-[4-(1,1-dimethylheptyl)-2,6-dimethoxy-phenyl]-6,6-dimethyl-bicyclo[3.1.1]hept-2-en-2-yl}-methanol, reference compound], the “effect on IL-2 secretion” value in experiment [1] (doses of up to 10 μM) is given as “minimal effect”.

For the molecule `CCCCCCC(C)(C)c1cc(O)c(C2CC(=O)C3CC2C3(C)C)c(O)c1` (single isomer, unassigned; (-)) [Compound A, (−)-4-[4-(1,1-Dimethyl-heptyl)2,6-dihydroxy-phenyl]-6,6-dimethyl-bicyclo[3.1.1)heptan-2-one], in experiment [2] (10 μM), the “reduction of TNF-α secretion” value was 53%. Moreover, the IC50 in experiment [2] (Mus musculus, RAW264.7) was 10 µM; in experiment [3] (Mus musculus, RAW264.7), 9 µM; in experiment [1] (Homo sapiens, Jurkat), 3 µM; in experiment [4], 0.00024 µM. Besides, the “reversal of IL-2 secretion inhibiting activity by antagonists” value in experiment [1] is “not reversed by any of these antagonists”. The inhibition at 1 µM in experiment [4] (setting [5]) stood at 63%.

Take `CCCCC(C)(C)c1cc(O)c(C2CC(=O)C3CC2C3(C)C)c(O)c1` (single isomer, unassigned; (-)) [Compound L, (−)-4-[4(1,1-Dimethyl-pentyl)-2,6-dihydroxy-phenyl]-6,6-dimethyl-bicyclo[3.1.1]heptan-2-one]: the “effect on TNF-α secretion” value in experiment [2] is recorded as “none of them did significantly affect TNF-α secretion”. Besides, the IC50 in experiment [3] (Mus musculus, RAW264.7) is 7 µM; in experiment [1] (Homo sapiens, Jurkat) it was 8 µM. Moreover, the “reversal of IL-2 secretion inhibiting activity by antagonists” value in experiment [1] was “not reversed by any of these antagonists”. Besides, in experiment [4] (setting [5]), the inhibition at 1 µM was 33%.

Consider `CCCCC(C)(C)c1cc(O)c(C2CC(=O)C3CC2C3(C)C)c(OC(=O)CCC(=O)O)c1` (single isomer, unassigned; (-)) [Compound Y, (−)-4-{4-[1,1-Dimethyl-pentyl]-2-succinate-6-hydroxy-phenyl}-6,6-dimethyl-bicyclo[3.1.1]heptan-2-one], for which, in experiment [2], the “effect on TNF-α secretion” value is “none of them did significantly affect TNF-α secretion”. Further, the results for the IC50 in experiment [3], in experiment [1] and in experiment [4] (setting [6]) were 7 µM, 9 µM and 0.00113 µM, respectively. Moreover, the “% inhibition at 1 μM” value in experiment [4] (setting [5]) is 60%.

On to `CCCCCCC(C)(C)c1cc(O)c([C@H]2CC(=O)[C@H]3C[C@@H]2C3(C)C)c(OC(=O)CCC(=O)O)c1` [Compound R, (−)-4-{4-[1,1-Dimethyl-heptyl]-2-succinate-6-hydroxy-phenyl}-6,6-dimethyl-bicyclo[3.1.1]heptan-2-one], for which the “effect on TNF-α secretion” value in experiment [2] is recorded as “none of them did significantly affect TNF-α secretion”. For the same molecule, the IC50 in experiment [3] (Mus musculus, RAW264.7) was 9 µM; in experiment [1] (Homo sapiens, Jurkat), 9 µM; in experiment [4] (setting [6]) it was 0.00047 µM. Besides, in experiment [4] (setting [5]), the inhibition at 1 µM is 64%.
